Experimental data taken from US11598778B2, “Method for diagnosis, prognosis and determination of treatment for cutaneous t-cell lymphoma” (UNIVERSITY OF PITTSBURGH—OF THE COMMONWEALTH SYSTEM OF …, priority 2013, dated 2023).

Experiments:
Type in all cases: cell-based, human
[1] = test system: TOX; experiment: qRT-PCR of TOX gene expression in cultured PBMCs after drug treatment; conditions: isolated PBMCs, 48 hours of incubation with treatment; 4 μM romidepsin or 20 uM pralatrexate; romidepsin p<0.05; FIG. 5A
Method: (§1) Isolated PBMCs were cultured overnight and the next day divided into two treatment groups: 4 μM romidepsin and 20 uM pralatrexate. Each treatment was added 24 hours following culture initiation and was replaced along with fresh media 24 hours after initial treatment. After 48 hours of incubation with treatment, RNA was isolated from treated cells using RNAprotect and RNeasy (Qiagen, Valencia, Calif.) per manufacturer's instructions. For cDNA synthesis, total RNA (100 ng) was used for Reverse Transcription (RT) with Superscript II reverse transcriptase (Life Technologies, Gaithersburg, Md.) using oligo dT primers according to the recommendations of the manufacturer. 2 ul of the resulting cDNA was used for each PCR reaction. Quantitative reverse transcription PCR was performed using TaqMan PCR master mix (Applied Biosystems, Foster City, Calif.) together with TaqMan probes and primers (Applied Biosystems) using standard conditions. Expression of TOX, PLS3 and […] genes were measured in this way.

[2] = test system: PLS3; experiment: qRT-PCR of PLS3 gene expression in cultured PBMCs after drug treatment; conditions: isolated PBMCs, 48 hours of incubation with treatment; 4 μM romidepsin or 20 uM pralatrexate; romidepsin p<0.05; FIG. 5B
Method: as §1

[3] = test system: RUNX3; experiment: qRT-PCR of RUNX3 gene expression in cultured PBMCs after drug treatment; conditions: isolated PBMCs, 48 hours of incubation with treatment; 4 μM romidepsin or 20 uM pralatrexate; romidepsin p<0.05; FIG. 5C
Method: as §1

C#CCC(Cc1cnc2nc(N)nc(N)c2n1)c1ccc(C(=O)N[C@@H](CCC(=O)O)C(=O)O)cc1 (stereo partly drawn) [pralatrexate]
gene expression of TOX [1]: did not result in altered gene expression | gene expression of PLS3 [2]: did not result in altered gene expression | expression of RUNX3 [3]: did not result in altered gene expression
